Experimental data as given in PubChem BioAssay (NCI).
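Five concentrations, 48 hours, 96-well plates. Abbreviation: GI50, concentration required for 50% inhibition of growth. The concentration for full growth arrest is given as TGI.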

Experiments:
Test in all cases: NCI tumour cell line growth inhibition, 48 h
SK-MEL-5 melanoma = tested on: SK-MEL-5 melanoma
HOP-92 NSCLC = tested on: HOP-92 NSCLC
MCF7 breast = tested on: MCF7 breast
MOLT-4 leukemia = tested on: MOLT-4 leukemia
K-562 leukemia = tested on: K-562 leukemia
OVCAR-3 ovarian = tested on: OVCAR-3 ovarian
OVCAR-4 ovarian = tested on: OVCAR-4 ovarian
PC-3 prostate = tested on: PC-3 prostate
A549 NSCLC = tested on: A549 NSCLC
NCI-H226 lung = tested on: NCI-H226 lung
T-47D breast = tested on: T-47D breast
SN12C renal = tested on: SN12C renal
SW-620 colon = tested on: SW-620 colon
HCT-15 colon = tested on: HCT-15 colon
SF-268 CNS = tested on: SF-268 CNS
NCI-H23 lung = tested on: NCI-H23 lung
SK-MEL-28 melanoma = tested on: SK-MEL-28 melanoma
COLO 205 colon = tested on: COLO 205 colon
RPMI-8226 leukemia = tested on: RPMI-8226 leukemia
NCI-H460 lung = tested on: NCI-H460 lung
A498 renal = tested on: A498 renal
HT29 colon = tested on: HT29 colon
KM12 colon = tested on: KM12 colon
786-0 renal = tested on: 786-0 renal
TK-10 renal = tested on: TK-10 renal
SK-OV-3 ovarian = tested on: SK-OV-3 ovarian
MDA-MB-231 breast = tested on: MDA-MB-231 breast
U251 CNS = tested on: U251 CNS
MALME-3M melanoma = tested on: MALME-3M melanoma
ACHN renal = tested on: ACHN renal
HL-60(TB) leukemia = tested on: HL-60(TB) leukemia
SK-MEL-2 melanoma = tested on: SK-MEL-2 melanoma
DU-145 prostate = tested on: DU-145 prostate
UACC-62 melanoma = tested on: UACC-62 melanoma
SF-539 CNS = tested on: SF-539 CNS
NCI/ADR-RES ovarian = tested on: NCI/ADR-RES ovarian
HS 578T breast = tested on: HS 578T breast
LOX IMVI melanoma = tested on: LOX IMVI melanoma
OVCAR-5 ovarian = tested on: OVCAR-5 ovarian
IGROV1 ovarian = tested on: IGROV1 ovarian
HOP-62 NSCLC = tested on: HOP-62 NSCLC
BT-549 breast = tested on: BT-549 breast
OVCAR-8 ovarian = tested on: OVCAR-8 ovarian
SNB-19 CNS = tested on: SNB-19 CNS
SR leukemia = tested on: SR leukemia
UACC-257 melanoma = tested on: UACC-257 melanoma
M14 melanoma = tested on: M14 melanoma
CCRF-CEM leukemia = tested on: CCRF-CEM leukemia
MDA-MB-435 = tested on: MDA-MB-435
EKVX NSCLC = tested on: EKVX NSCLC
CAKI-1 renal = tested on: CAKI-1 renal
SF-295 CNS = tested on: SF-295 CNS
HCT-116 colon = tested on: HCT-116 colon
SNB-75 CNS = tested on: SNB-75 CNS
RXF 393 renal = tested on: RXF 393 renal
UO-31 renal = tested on: UO-31 renal

Structure (SMILES): CCN(CC)c1ccc(N=O)cc1
- GI50 (SK-MEL-5 melanoma): 2.47 µM
- TGI (SK-MEL-5 melanoma): 7.38 µM
- GI50 (HOP-92 NSCLC): 2.18 µM
- TGI (HOP-92 NSCLC): 7.73 µM
- GI50 (MCF7 breast): 2.76 µM
- TGI (MCF7 breast): 11.8 µM
- GI50 (MOLT-4 leukemia): 3.34 µM
- TGI (MOLT-4 leukemia): 30.1 µM
- GI50 (K-562 leukemia): 2.23 µM
- TGI (K-562 leukemia): 15.9 µM
- GI50 (OVCAR-3 ovarian): 1.97 µM
- TGI (OVCAR-3 ovarian): 4.61 µM
- GI50 (OVCAR-4 ovarian): 3.26 µM
- TGI (OVCAR-4 ovarian): 13.5 µM
- GI50 (PC-3 prostate): 3.14 µM
- TGI (PC-3 prostate): 12.1 µM
- GI50 (A549 NSCLC): 2.07 µM
- TGI (A549 NSCLC): 5.56 µM
- GI50 (NCI-H226 lung): 13.6 µM
- TGI (NCI-H226 lung): 38.4 µM
- GI50 (T-47D breast): 2.89 µM
- TGI (T-47D breast): 16.7 µM
- GI50 (SN12C renal): 4.24 µM
- TGI (SN12C renal): 17.2 µM
- GI50 (SW-620 colon): 1.71 µM
- TGI (SW-620 colon): 5.53 µM
- GI50 (HCT-15 colon): 2.26 µM
- TGI (HCT-15 colon): 12.8 µM
- GI50 (SF-268 CNS): 5.53 µM
- TGI (SF-268 CNS): 20.9 µM
- GI50 (NCI-H23 lung): 1.95 µM
- TGI (NCI-H23 lung): 5.32 µM
- GI50 (SK-MEL-28 melanoma): 10.7 µM
- TGI (SK-MEL-28 melanoma): 23 µM
- GI50 (COLO 205 colon): 1.98 µM
- TGI (COLO 205 colon): 5.46 µM
- GI50 (RPMI-8226 leukemia): 2.09 µM
- TGI (RPMI-8226 leukemia): 6.33 µM
- GI50 (NCI-H460 lung): 5.12 µM
- TGI (NCI-H460 lung): 34.2 µM
- GI50 (A498 renal): 13.6 µM
- TGI (A498 renal): 38.5 µM
- GI50 (HT29 colon): 1.27 µM
- TGI (HT29 colon): 4.3 µM
- GI50 (KM12 colon): 3.39 µM
- TGI (KM12 colon): 13.1 µM
- GI50 (786-0 renal): 7.46 µM
- TGI (786-0 renal): 23.6 µM
- GI50 (TK-10 renal): 2.79 µM
- TGI (TK-10 renal): 10.8 µM
- GI50 (SK-OV-3 ovarian): 12.4 µM
- TGI (SK-OV-3 ovarian): 29.3 µM
- GI50 (MDA-MB-231 breast): 5.29 µM
- TGI (MDA-MB-231 breast): 20.9 µM
- GI50 (U251 CNS): 1.14 µM
- TGI (U251 CNS): 2.73 µM
- GI50 (MALME-3M melanoma): 1.59 µM
- TGI (MALME-3M melanoma): 4.46 µM
- GI50 (ACHN renal): 2.61 µM
- TGI (ACHN renal): 11.1 µM
- GI50 (HL-60(TB) leukemia): 2.85 µM
- TGI (HL-60(TB) leukemia): 13.6 µM
- GI50 (SK-MEL-2 melanoma): 8.39 µM
- TGI (SK-MEL-2 melanoma): 22 µM
- GI50 (DU-145 prostate): 6.43 µM
- TGI (DU-145 prostate): 19.9 µM
- GI50 (UACC-62 melanoma): 6.66 µM
- TGI (UACC-62 melanoma): 23.5 µM
- GI50 (SF-539 CNS): 2.96 µM
- TGI (SF-539 CNS): 10.1 µM
- GI50 (NCI/ADR-RES ovarian): 2.33 µM
- TGI (NCI/ADR-RES ovarian): 7 µM
- GI50 (HS 578T breast): 10.2 µM
- TGI (HS 578T breast): > 100 µM
- GI50 (LOX IMVI melanoma): 1.67 µM
- TGI (LOX IMVI melanoma): 3.53 µM
- GI50 (OVCAR-5 ovarian): 3.51 µM
- TGI (OVCAR-5 ovarian): 14.3 µM
- GI50 (IGROV1 ovarian): 2.05 µM
- TGI (IGROV1 ovarian): 6.41 µM
- GI50 (HOP-62 NSCLC): 2.78 µM
- TGI (HOP-62 NSCLC): 11.8 µM
- GI50 (BT-549 breast): 16.6 µM
- TGI (BT-549 breast): 30.5 µM
- GI50 (OVCAR-8 ovarian): 3.14 µM
- TGI (OVCAR-8 ovarian): 12.3 µM
- GI50 (SNB-19 CNS): 12.8 µM
- TGI (SNB-19 CNS): 29.9 µM
- GI50 (SR leukemia): 3.74 µM
- TGI (SR leukemia): 46.2 µM
- GI50 (UACC-257 melanoma): 1.82 µM
- TGI (UACC-257 melanoma): 4.15 µM
- GI50 (M14 melanoma): 3.47 µM
- TGI (M14 melanoma): 14.4 µM
- GI50 (CCRF-CEM leukemia): 0.937 µM
- TGI (CCRF-CEM leukemia): 13 µM
- GI50 (MDA-MB-435): 2.72 µM
- TGI (MDA-MB-435): 11.9 µM
- GI50 (EKVX NSCLC): 10.2 µM
- TGI (EKVX NSCLC): 26.8 µM
- GI50 (CAKI-1 renal): 1.29 µM
- TGI (CAKI-1 renal): 3.83 µM
- GI50 (SF-295 CNS): 4.87 µM
- TGI (SF-295 CNS): 20.5 µM
- GI50 (HCT-116 colon): 1.82 µM
- TGI (HCT-116 colon): 4.71 µM
- GI50 (SNB-75 CNS): 3.47 µM
- TGI (SNB-75 CNS): 16.9 µM
- GI50 (RXF 393 renal): 2.46 µM
- TGI (RXF 393 renal): 7.45 µM
- GI50 (UO-31 renal): 1.21 µM
- TGI (UO-31 renal): 3.81 µM
